Data set [1] deals with HCV. The following applies: cited from earlier work.
The subject of data set [2] is 1 a replicon. In words: HCV replicon luciferase reporter assay, 384 plate protocol, 1a replicon. The following applies: Hepatitis C virus; Table 1; *384 plate protocol and a 1 a replicon. It counts as cell-based. As for the experimental part:
The HCV replicon luciferase assay was developed to monitor the inhibitory effects of compounds described in the disclosure on HCV viral replication. Utilization of a replicon luciferase reporter assay was first described by Krieger et al (Krieger N, Lohmann V, and Bartenschlager R, J. Virol. 75(10):4614-4624 (2001)). HUH-7 cells, constitutively expressing the HCV replicon, were grown in Dulbecco's Modified Eagle Media (DMEM) (Gibco-BRL) containing 10% Fetal calf serum (FCS) (Sigma) and 1 mg/ml G418 (Gibco-BRL). Compounds were serially diluted 3 folds in DMSO for a twenty-point titration and subsequently transferred to sterile 384-well tissue-culture treated plates (Corning cat #3571). The plates were then seeded with 50 μl of cells at a density of 3.0×10^3 cells/well in DMEM containing 4% FCS (final DMSO concentration at 0.5%). After 3 days incubation at 37° C., cells were analyzed for Renilla Luciferase activity using the EnduRen as substrate (Promega cat #E6485). The EnduRen substrate was diluted in DMEM and then added to the plates to a final concentration of 7.5 μM. The plates were incubated for 2 hrs at 37° C. and then read immediately for 30 seconds with Viewlux Imager (PerkinElmer) using a luminescence program. […] The fluorescence signal from each well was read, with an excitation wavelength at 525/10 nm and an emission wavelength of 598/10 nm, using the Viewlux Imager.

Data set [3] has as its system HCV replicon cells. Briefly: HCV replicon assay (FRET or luciferase readout). The format is cell-based. The following applies: Hepatitis C virus, Table 2. An outline of the steps:
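Replicon cells (with or without Renilla luciferase reporter) incubated with titrated compounds at 37 °C; Alamar blue read for cytotoxicity first. NS3 protease activity read kinetically with 20 μM EDANS/DABCYL FRET peptide in lysis reagent plus 150 mM NaCl (ex 340/em 490), or by Dual-Glo luciferase. EC50 = 50% signal reduction after protease-inhibitor background subtraction.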
Background: Replicon systems follow genome replication, usually without infectious particles.

The target of data set [4] is T1, HCV NS5B RdRp genotype 1b (Hepatitis C virus genotype 1b, UniProt Q9WMX2).
T1 construct: The protein was expressed with an 18 amino acid C-terminal truncation to enhance the solubility; made in house; host or cells: E. coli BL21(DE3), pET21a vector
In words: HCV NS5B RdRp enzyme assay (standard / modified). The format is biochemical. Particulars: Table 2; HCV NS5B genotype 1b. The method in brief:
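Genotype 1b NS5B with an 18-aa C-terminal truncation, expressed in E. coli, was tested by SPA incorporation of 3H-UTP (0.29 μM) on polyA/biotin-oligo-dT12. Standard assay: 28 nM enzyme, 6 nM template, 180 nM primer, 60 min at 30 °C, pH 7.5, 2% DMSO. Modified assay: 14 nM enzyme added to compound first, 0.2 nM template, 20 nM bead-precaptured primer, 4 h at 30 °C. IC50 used seven inhibitor concentrations.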

The test system of data set [5] is HCV replicon in HUH-7 cells. Briefly: HCV replicon luciferase reporter assay, 384 well plate protocol. It counts as cell-based. Particulars: Hepatitis C virus, Table 2. As to the method:
The HCV replicon luciferase assay was developed to monitor the inhibitory effects of compounds described in the disclosure on HCV viral replication. Utilization of a replicon luciferase reporter assay was first described by Krieger et al (Krieger N, Lohmann V, and Bartenschlager R, J. Virol. 75(10):4614-4624 (2001)). HUH-7 cells, constitutively expressing the HCV replicon, were grown in Dulbecco's Modified Eagle Media (DMEM) (Gibco-BRL) containing 10% Fetal calf serum (FCS) (Sigma) and 1 mg/ml G418 (Gibco-BRL). Compounds were serially diluted 3 folds in DMSO for a twenty-point titration and subsequently transferred to sterile 384-well tissue-culture treated plates (Corning cat #3571). The plates were then seeded with 50 μl of cells at a density of 3.0×10^3 cells/well in DMEM containing 4% FCS (final DMSO concentration at 0.5%). After 3 days incubation at 37° C., cells were analyzed for Renilla Luciferase activity using the EnduRen as substrate (Promega cat #E6485). The EnduRen substrate was diluted in DMEM and then added to the plates to a final concentration of 7.5 μM. The plates were incubated for 2 hrs at 37° C. and then read immediately for 30 seconds with Viewlux Imager (PerkinElmer) using a luminescence program. To assess cytotoxicity of compounds, CC50 values were generated by multiplexing the EnduRen-containing plates with Cell Titer-Blue (Promega, cat #G8082). 3 μl of Cell-Titer Blue was added to each well and incubated for 8 hrs at 37° C. The fluorescence signal from each well was read, with an excitation wavelength at 525/10 nm and an emission wavelength of 598/10 nm, using the Viewlux Imager.

T1 sequence (Q9WMX2 2420-2992): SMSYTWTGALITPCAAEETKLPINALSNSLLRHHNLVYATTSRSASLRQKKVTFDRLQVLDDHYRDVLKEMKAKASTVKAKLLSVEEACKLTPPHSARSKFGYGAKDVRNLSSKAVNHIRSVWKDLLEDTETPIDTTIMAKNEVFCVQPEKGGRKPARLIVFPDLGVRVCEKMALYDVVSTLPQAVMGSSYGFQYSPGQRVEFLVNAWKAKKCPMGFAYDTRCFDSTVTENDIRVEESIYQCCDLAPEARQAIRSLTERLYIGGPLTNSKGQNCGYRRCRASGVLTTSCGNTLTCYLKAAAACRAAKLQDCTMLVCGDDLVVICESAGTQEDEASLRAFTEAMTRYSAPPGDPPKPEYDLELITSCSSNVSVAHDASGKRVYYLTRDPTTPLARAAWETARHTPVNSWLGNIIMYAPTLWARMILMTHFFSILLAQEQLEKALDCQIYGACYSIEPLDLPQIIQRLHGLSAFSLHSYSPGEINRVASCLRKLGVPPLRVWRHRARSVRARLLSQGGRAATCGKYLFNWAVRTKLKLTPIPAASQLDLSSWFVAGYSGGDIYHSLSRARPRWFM

In the case of `CNC(=O)c1c(-c2ccc(F)cc2)oc2cc(N(CCO)S(C)(=O)=O)c(C3CC3)cc12` [HCV-796], in data set [1] (extended dosing of the combination regimens with interferon and ribavirin), the hepatic toxicity result is on record as “hepatic toxicity observed during extended dosing of the combination regimens”. The “HCV RNA levels in patients” value in data set [1] (patients) is given as “showed an ability to reduce HCV RNA levels in patients”.
In general, EC50 refers to the midpoint of the concentration-response curve. Regarding `CNC(=O)c1c(-c2ccc(F)cc2)nc2ccc(-c3ccc(-c4ccccc4Cl)c(C(=O)NCC(C)C)c3)cn12` [drawing 163], in data set [2], the EC50 fell in the range of 250 to 1000 nM.
Regarding `CNC(=O)c1c(-c2ccc(F)cc2)nc2ccc(-c3cc(C(=O)NC4(c5ccccn5)CC4)c(OC)cc3Cl)cn12` [drawing 164], the EC50 in data set [2] fell in the range of 2 to 250 nM.
In general, IC50 refers to the midpoint of a concentration-inhibition curve. A high value points to weaker potency in that assay. Consider `CNC(=O)c1c(-c2ccc(F)cc2)nn2cc(N(CCO)S(C)(=O)=O)c(-c3cccc(C(=O)NC4(c5ccccn5)CC4)c3)cc12` [drawing 182], for which the EC50 in data set [3] was found to be 1560 nM. The IC50 in data set [4] was 60 nM.
On the same counts, the results for `CNC(=O)c1c(-c2ccc(F)cc2)sc2ccc(-c3cccc(C(=O)NC(C)(C)C)c3)cc12` [drawing 183] are 1860 nM and greater than 4170 nM.
On the same counts, the results for `CNC(=O)c1c(-c2ccc(F)cc2)nn2cc(N(CCO)S(C)(=O)=O)c(OC)cc12` [drawing 184] are 3990 nM and 2920 nM.
For `CNC(=O)c1c(-c2ccc(F)cc2)nn2ccc(-c3cc(C(=O)NC4(c5ccccc5)CC4)ccc3C)c(F)c12` [drawing 185], the response in data set [5] was half-maximal at 0.85 nM (EC50). This lies in the sub-nanomolar range.
In data set [4], `CNC(=O)c1c(-c2ccc(F)cc2)oc2ncc(-c3cc(C(=O)NC4(c5ccccn5)CC4)ccc3C)cc12` [drawing 186] came in with a concentration for half-maximal inhibition (IC50) of 4.65 nM. The EC50 in data set [5] amounted to 2.04 nM.
Consider `CNC(=O)c1c(-c2ccc(F)cc2)oc2ncc(-c3cc(C(=O)NC4(c5ccccn5)CC4)ccc3Cl)cc12` [drawing 187], for which the EC50 in data set [5] stood at 1.5 nM.
With alpha-interferon and ribavirin, the sustained efficacy in data set [1] (combination therapy) was 40 % of patients.
As to pegylated alpha-interferon, the “clinical efficacy compared with unmodified alpha-interferon” value in data set [1] (monotherapy) was “superior to unmodified alpha-interferon as monotherapy”.
